Source: paper PMC6009956, “Design, synthesis and biological activity of N^4-phenylsubstituted-7H-pyrrolo[2,3-d]pyrimidin-4-amines as dual inhibitors of aurora kinase A and epidermal growth factor receptor kinase” (Journal of Enzyme Inhibition and Medicinal Chemistry, 2017)
Like-named read-outs stand apart in the source and are kept apart here.

Assays:
[1] = target: T1, AURKA (Homo sapiens, UniProt O14965); assay: DiscoverX competition binding assay, AURKA; details: read-out: Binding constant (Kd) AURKA
T1 construct: purchased DiscoverX Corporation (assay run externally by the vendor)
T1 sequence (O14965 1-403): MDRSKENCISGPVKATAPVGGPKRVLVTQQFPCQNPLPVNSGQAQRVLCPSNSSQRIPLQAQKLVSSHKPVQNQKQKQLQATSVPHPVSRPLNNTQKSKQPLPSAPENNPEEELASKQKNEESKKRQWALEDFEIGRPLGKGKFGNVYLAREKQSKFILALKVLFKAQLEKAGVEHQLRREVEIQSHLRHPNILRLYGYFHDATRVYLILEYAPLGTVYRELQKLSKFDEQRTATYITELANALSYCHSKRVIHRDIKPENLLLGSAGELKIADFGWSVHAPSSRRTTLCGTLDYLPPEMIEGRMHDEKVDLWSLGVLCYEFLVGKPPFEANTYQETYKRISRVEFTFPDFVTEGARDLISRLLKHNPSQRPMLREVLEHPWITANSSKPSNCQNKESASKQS
Method: (§1) The assay was performed externally at DiscoverX Corporation using a competition binding assay that quantitatively measures the ability of a compound to compete with an immobilised, active-site directed ligand[24]. The assay is performed by combining three components: DNA-tagged kinase, immobilised ligand and a test compound. The ability of the test compound to compete with the immobilised ligand was measured via quantitative PCR of the DNA tag. An 11-point 3-fold serial dilution of each test compound was prepared in 100% of DMSO at 100× final test concentration and subsequently diluted to 1× in the assay (final DMSO concentration = 1%). […] Binding constants (Kd) were calculated with a standard dose-response curve using the Hill equation.
(§2) Binding Affinities for EGFR, AURKA and AURKB
(§3) The assay was performed externally at DiscoverX Corporation using a competition binding assay that quantitatively measures the ability of a compound to compete with an immobilized, active-site directed ligand for target kinases AURKA, AURKB and EGFR.23 The assay is performed by combining three components: DNA-tagged kinase; immobilized ligand; and a test compound. The ability of the test compound to compete with the immobilized ligand was measured via quantitative PCR of the DNA tag. […] Compound Kds were determined using a compound top […]

[2] = target: T2, AURKB (Homo sapiens, UniProt Q96GD4); assay: DiscoverX competition binding assay, AURKB; details: read-out: Binding constant (Kd) AURKB
T2 construct: purchased DiscoverX Corporation (assay run externally by the vendor)
T2 sequence (Q96GD4 whole entry): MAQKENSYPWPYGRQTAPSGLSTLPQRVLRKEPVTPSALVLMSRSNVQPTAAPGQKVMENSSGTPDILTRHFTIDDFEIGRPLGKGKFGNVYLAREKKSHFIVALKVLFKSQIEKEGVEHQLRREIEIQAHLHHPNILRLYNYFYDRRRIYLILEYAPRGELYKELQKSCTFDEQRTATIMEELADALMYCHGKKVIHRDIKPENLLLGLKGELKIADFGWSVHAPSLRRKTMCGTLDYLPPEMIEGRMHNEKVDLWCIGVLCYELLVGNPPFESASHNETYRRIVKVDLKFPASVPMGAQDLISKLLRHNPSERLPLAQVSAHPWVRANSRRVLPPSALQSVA
Method: as §1, §2, §3

[3] = tested on: CAL cells; assay: Cell killing, PI staining and FACS, CAL; format: cell-based; details: 100 µM, 72 h
Method: (§4) FADU, BHY, SAS and CAL cell lines were obtained from ATCC-LGC and were cultured in DMEM (Invitrogen, Germany) supplemented with 10% of heat activated bovine serum (FBS, PAA, Germany), 1% of glutamine, 1% of penicillin-streptomycin (Invitrogen, Germany). To measure proliferation, SCCHN cells were split, reseeded (5 × 10^5 in 25 cm^2 flasks) and counted at the indicated time points. Cells were then replated at the initial density. The fold increase in cell number was calculated, all given results are based on triplicate experiments. To assess cell death 5 × 10^5 cells were stained with propidium iodide (PI, Sigma, Germany). Following incubation, cells were washed, resuspended in PBS, and analysed by flow cytometry. The fraction of PI-positive cells is reported as dead cell fraction.
(§5) Figure 3. […] Cells were incubated with compound 2 for 48 h and then subjected to PI staining and FACS analysis. PI-positive cell fraction as measure of cell death is reported. (B) Four SCCHN cell lines were incubated with 100 μM of compound 2 and counted on the indicated days. Experiments in triplicates, fold growth shown. (C) EGFR expression of SCCHN cell lines. EGFR high and low as detected by western blot analysis (D) The SCCHN cell lines were incubated with 100 μM of compound 2 for 72 h. Percent PI positive cells are given. Experiments in triplicates.

[4] = tested on: BHY cells; assay: Proliferation (cell counting), BHY; format: cell-based; details: 100 µM
Method: as §4, §5

[5] = tested on: CAL cells; assay: Proliferation (cell counting), CAL; format: cell-based; details: 100 µM
Method: as §4, §5

[6] = tested on: SAS cells; assay: Proliferation (cell counting), SAS; format: cell-based; details: 100 µM
Method: as §4, §5

[7] = tested on: Phosphorylated histone H3 (p-HH3) in BHY and FADU SCCHN cell lines; assay: Western blot of p-HH3 in BHY and FADU cells; format: cell-based; details: 100 μM
Method: Protein extracts (50 μg per lane) were electrophoretically separated on SDS-PAGE gels, transferred to membranes (Protran, Schleicher & Schuell, Dassel, Germany) and blotted with specific antibodies (actin, aurora A, aurora B: all from Sigma, Munich, Germany; S10-HH3: Millipore, Schwalbach, Germany; EGFR: Santa Cruz, Heidelberg, Germany; pEGFR: Invitrogen, Darmstadt, Germany; pAKT, pERK: both from New England Biolabs, Frankfurt, Germany).
Figure 4. Effects of compound 2 on EGFR and aurora kinases in growing SCCHN cell lines (A) Western blot analysis of EGFR (pEGFR, pERK, p-AKT) and aurora A (p-HH3) downstream target proteins following incubation with 100 μM compound 2 for the indicated time points in BHY and FADU SCCHN cell lines. (B) BHY and CAL cell lines treated for the indicated time points with 200 nM cetuximab. Western blot analysis of EGFR downstream targets. (long exposure and short exposure). […] Western blot analysis of p-HH3 at the indicated time points. Asterisk (*) represents unspecific band.

[8] = target: EGFR (Homo sapiens, UniProt P00533); assay: ADP-Glo kinase assay, EGFR; format: biochemical; set-up: purchased BPS Bioscience (assay run externally by the vendor)
Sequence of EGFR (P00533 25-1210): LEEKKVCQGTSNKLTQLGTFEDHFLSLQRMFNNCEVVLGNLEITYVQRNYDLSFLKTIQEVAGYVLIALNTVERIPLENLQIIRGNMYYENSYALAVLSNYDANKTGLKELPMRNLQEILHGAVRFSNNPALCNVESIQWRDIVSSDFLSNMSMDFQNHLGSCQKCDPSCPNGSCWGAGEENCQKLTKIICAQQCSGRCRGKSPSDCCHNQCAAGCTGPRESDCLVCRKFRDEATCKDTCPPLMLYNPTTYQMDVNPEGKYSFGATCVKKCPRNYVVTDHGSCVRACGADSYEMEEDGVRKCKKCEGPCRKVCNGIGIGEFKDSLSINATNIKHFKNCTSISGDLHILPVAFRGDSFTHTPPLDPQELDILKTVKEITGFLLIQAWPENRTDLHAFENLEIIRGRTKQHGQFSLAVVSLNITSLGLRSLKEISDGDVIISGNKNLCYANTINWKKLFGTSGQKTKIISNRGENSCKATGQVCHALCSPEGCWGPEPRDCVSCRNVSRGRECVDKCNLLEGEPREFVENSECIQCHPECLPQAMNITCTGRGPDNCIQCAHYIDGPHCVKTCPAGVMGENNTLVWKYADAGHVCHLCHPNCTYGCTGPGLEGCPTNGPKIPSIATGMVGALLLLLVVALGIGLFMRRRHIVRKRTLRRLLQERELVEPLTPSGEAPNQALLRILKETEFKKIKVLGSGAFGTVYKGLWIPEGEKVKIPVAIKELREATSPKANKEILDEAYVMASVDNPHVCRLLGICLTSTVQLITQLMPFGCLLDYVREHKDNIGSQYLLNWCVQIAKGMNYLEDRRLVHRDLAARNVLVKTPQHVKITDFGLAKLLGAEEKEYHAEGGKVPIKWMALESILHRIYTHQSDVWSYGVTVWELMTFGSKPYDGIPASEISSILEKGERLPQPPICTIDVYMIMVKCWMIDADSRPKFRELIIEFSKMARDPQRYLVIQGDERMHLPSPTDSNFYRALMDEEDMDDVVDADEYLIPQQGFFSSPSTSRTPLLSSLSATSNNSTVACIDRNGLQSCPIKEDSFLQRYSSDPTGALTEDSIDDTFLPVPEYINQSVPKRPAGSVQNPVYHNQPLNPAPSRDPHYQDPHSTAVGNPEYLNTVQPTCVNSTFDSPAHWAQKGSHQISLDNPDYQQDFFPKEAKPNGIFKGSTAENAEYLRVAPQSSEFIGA

For `Brc1cccc(Nc2ncnc3[nH]ccc23)c1` [Compound 2, N^4-(3-bromophenyl)-7H-pyrrolo[2,3-d]pyrimidine-4-amine], the Kd [1] was 3400 nM, the Kd [2] was 4800 nM and the “Cell killing (PI positive cells)” value [3] was “efficient cell killing”. For the same compound, the “Cell growth (fold growth)” value [4] was “completely inhibited cell growth”, the “Cell growth (fold growth)” value [5] was “completely inhibited cell growth” and the “Cell growth (fold growth)” value [6] was “completely inhibited cell growth”. For the same compound, the “Effect on histone p-HH3” value [7] was “Modest effects”, the “EGFR inhibition (in words)” value [8] was “single-digit nanomolar EGFR inhibition” and the IC50 ([8]; 10 µM ATP, triplicate, read-out: EGFR IC50 ± SD) was 3.76 ± 0.12 nM. The IC50 ([8]; 10 µM ATP/0.2 mg/ml Poly-Glu-Tyr, read-out: EGFR IC50 (dose-response curve, supplement)) was 3.8 nM, the “EGFR % Activity Set1” value ([8]; Log[nM] 0) was 43% and the “EGFR % Activity Set2” value ([8]; Log[nM] 0) was 41%. The “EGFR % Activity Set3” value ([8]; Log[nM] 0) was 41%, the “EGFR % Activity Set1” value ([8]; Log[nM] 1.0) was 29% and the “EGFR % Activity Set2” value ([8]; Log[nM] 1.0) was 29%. The “EGFR % Activity Set3” value ([8]; Log[nM] 1.0) was 28%, the “EGFR % Activity Set1” value ([8]; Log[nM] 1.5) was 11% and the “EGFR % Activity Set2” value ([8]; Log[nM] 1.5) was 9%. The “EGFR % Activity Set3” value ([8]; Log[nM] 1.5) was 11%, the “EGFR % Activity Set1” value ([8]; Log[nM] 2.0) was 6% and the “EGFR % Activity Set2” value ([8]; Log[nM] 2.0) was 6%. For the same compound, the “EGFR % Activity Set3” value ([8]; Log[nM] 2.0) was 6%, the “EGFR % Activity Set1” value ([8]; Log[nM] 2.5) was 3% and the “EGFR % Activity Set2” value ([8]; Log[nM] 2.5) was 2%. The “EGFR % Activity Set3” value ([8]; Log[nM] 2.5) was 3%, the “EGFR % Activity Set1” value ([8]; Log[nM] 3.0) was 1% and the “EGFR % Activity Set2” value ([8]; Log[nM] 3.0) was 1%. The “EGFR % Activity Set3” value ([8]; Log[nM] 3.0) was 1%, the “EGFR % Activity Set1” value ([8]; Log[nM] 3.5) was 1% and the “EGFR % Activity Set2” value ([8]; Log[nM] 3.5) was 1%. The “EGFR % Activity Set3” value ([8]; Log[nM] 3.5) was 0%, the “EGFR % Activity Set1” value ([8]; Log[nM] 4.0) was 0% and the “EGFR % Activity Set2” value ([8]; Log[nM] 4.0) was 0%. For the same compound, the “EGFR % Activity Set3” value ([8]; Log[nM] 4.0) was 0%, the “EGFR % Activity Set1” value ([8]; Log[nM] 4.5) was 0% and the “EGFR % Activity Set2” value ([8]; Log[nM] 4.5) was 0%. For the same compound, the “EGFR % Activity Set3” value ([8]; Log[nM] 4.5) was 0%, the “EGFR % Activity Set1” value ([8]; Log[nM] 5.0) was 0% and the “EGFR % Activity Set2” value ([8]; Log[nM] 5.0) was 0%. The “EGFR % Activity Set3” value ([8]; Log[nM] 5.0) was 0%.
